In one experiment the test system is CNS cell. Kind of experiment: Growth inhibitory concentration dissolved in DMSO against human CNS cell line at 10E-4 M concentration. In kind it is functional.
Experiment [1] relates to Colon cell. Kind of experiment: Total growth inhibition of human Colon cell line at 10E-4 M concentration. In kind it is functional. On the set-up: unit not given here.
Experiment [2] deals with NSCLC. The experiment is described as follows: Total growth inhibition of human NSCLC cell line at 10E-4 M concentration. In kind it is functional.
The subject of experiment [3] is Breast carcinoma cell. Kind of experiment: Total growth inhibition of human Breast cell line at 10E-4 M concentration. In kind it is functional.
The test system of experiment [4] is Panel NCI-60 (60 carcinoma cell lines). The experiment is described as follows: Total growth inhibition of human MG-MID cell line at 10E-4 M concentration. It is filed as functional.
Experiment [5] concerns Ovarian carcinoma cell. Kind of experiment: Total growth inhibition of human Ovarian cell line at 10E-4 M concentration. It is filed as functional.
In experiment [6] the test system is Melanoma cell. The experiment is described as follows: Total growth inhibition of human Melanoma cell line at 10E-4 M concentration. It is filed as functional.
In experiment [7] the test system is Prostate cell. Kind of experiment: Total growth inhibition of human Prostate cell line at 10E-4 M concentration. In kind it is functional.
For experiment [8], the system named is Prostate cell. The experiment is described as follows: Growth inhibitory concentration dissolved in DMSO against human Prostate cell line at 10E-4 M concentration. In kind it is functional.
In experiment [9] the test system is Ovarian carcinoma cell. Kind of experiment: Growth inhibitory concentration dissolved in DMSO against human Ovarian cell line at 10E-4 M concentration. It is filed as functional.
The test system of experiment [10] is Melanoma cell. Kind of experiment: Growth inhibitory concentration dissolved in DMSO against human Melanoma cell line at 10E-4 M concentration. In kind it is functional.
Experiment [11] concerns Colon cell. Kind of experiment: Growth inhibitory concentration dissolved in DMSO against human Colon cell line at 10E-4 M concentration. It is filed as functional.
Experiment [12] has as its system NSCLC. Kind of experiment: Growth inhibitory concentration dissolved in DMSO against human NSCLC cell line at 10E-4 M concentration. It is filed as functional. On the set-up: unit not given here.
In a further experiment the test system is Renal cell. The experiment is described as follows: Growth inhibitory concentration dissolved in DMSO against human Renal cell line at 10E-4 M concentration. It is filed as functional. On the set-up: unit not given here.
Experiment [13] concerns Breast carcinoma cell. The experiment is described as follows: Growth inhibitory concentration dissolved in DMSO against human Breast cell line at 10E-4 M concentration. In kind it is functional.
For experiment [14], the system named is Panel NCI-60 (60 carcinoma cell lines). Kind of experiment: Growth inhibitory concentration dissolved in DMSO against human MG-MID cell line at 10E-4 M concentration. In kind it is functional.
Experiment [15] has as its system Colon cell. Kind of experiment: Cytotoxic effect dissolved in DMSO against Colon cell line at 10E-4 M concentration. In kind it is functional, Homo sapiens.
Experiment [16] has as its system Breast carcinoma cell. The experiment is described as follows: Cytotoxic effect dissolved in DMSO against Breast cell line at 10E-4 M concentration. It is filed as functional, Homo sapiens.
In experiment [17] the test system is Panel NCI-60 (60 carcinoma cell lines). The experiment is described as follows: Cytotoxic effect dissolved in DMSO against MG-MID cell line at 10E-4 M concentration. It is filed as functional, Homo sapiens.
In experiment [18] the test system is Ovarian carcinoma cell. The experiment is described as follows: Cytotoxic effect dissolved in DMSO against Ovarian cell line at 10E-4 M concentration. In kind it is functional, Homo sapiens.
The subject of experiment [19] is Melanoma cell. Kind of experiment: Cytotoxic effect dissolved in DMSO against Melanoma cell line at 10E-4 M concentration. In kind it is functional, Homo sapiens.

Several values for one entry are separate records, joined by “and”; a condition that tells them apart may be missing. Equal entries are not always repeated.

Regarding `COc1ccc2c(c1)/C(=C\c1c(C)nc3sc(C)cn13)C(=O)N2C`, the figures for the “pGI50 (-log GI50, M)” value in the experiment with CNS cell and in the experiment on Breast carcinoma cell [13] were 5.46 and 5.6, respectively. The TGI was 4.55 and 4.59 in the experiment on Colon cell [1]; 4.4 in the experiment with NSCLC [2]; 4.87 in the experiment on Breast carcinoma cell [3]; 4.46 in [4]; 4.42 in the experiment with Ovarian carcinoma cell [5]; 4.45 in the experiment on Melanoma cell [6]. In the experiment with Prostate cell [7], this compound showed a TGI of 4.1. For the same compound, the “pGI50 (negative log molar GI50)” value in the experiment on Prostate cell [8] is 5.06. Further, the “pGI50 (negative log of GI50 in M)” value in the experiment on Ovarian carcinoma cell [9] came out at 5.16. In addition, in the experiment on Melanoma cell [10], the “pGI50 (-log molar GI50)” value amounted to 5.26. The “pGI50 (negative log of molar GI50)” value in the experiment with Colon cell [11] worked out at 5.49. For the same compound, the GI50 is listed as 5.11 with NSCLC [12], 5.32 in the experiment on Renal cell and 5.35 in experiment [14]. Moreover, the LC50 with Colon cell [15] was 4.09; in the experiment on Breast carcinoma cell [16] it was 4.03; in experiment [17] it was 4.03; in the experiment with Ovarian carcinoma cell [18], 4.02; in the experiment on Melanoma cell [19], 4.13.
Turning to `COc1cc2c(cc1C)NC(=O)/C2=C/c1c(C)nc2sc(C)cn12`, the “pGI50 (-log GI50, M)” value with CNS cell is listed as 4.08; in the experiment on Breast carcinoma cell [13], 4.33. The “pGI50 (negative log molar GI50)” value with Prostate cell [8] stood at 4.23. Also, the “pGI50 (negative log of GI50 in M)” value in the experiment on Ovarian carcinoma cell [9] was 4.12. Further, the “pGI50 (-log molar GI50)” value in the experiment with Melanoma cell [10] is 4.22. Moreover, the “pGI50 (negative log of molar GI50)” value in the experiment on Colon cell [11] is reported as 4.21. The GI50 came to 4.24 with NSCLC [12], 4.09 with Renal cell and 4.22 in experiment [14].

The record behind these values is ChEMBL document CHEMBL1141167, “Antitumor activity of new substituted 3-(5-imidazo[2,1-b]thiazolylmethylene)-2-indolinones and study of their effect on the cell cycle” (2005).
